Where “and” joins values, the source holds several entries; their conditions need not be identical. Equal values may be shown once.
Test system: writhing
Test: Analgesic effect, acetic acid writhing (Table 3)
Format: in vivo, mouse
Conditions: male mice
Procedure: Male mice weighing 15-18 g. and starved for 16 hours were used for the experiments. The drug was given orally, the control mice obtained a drug-free suspension. After 2 and 4 hours (2^h and 4^h respectively) the animals were injected with […], acetic acid solution (0.1 ml. per mouse) intraperitoneally. Upon the effect of the injection the animals reacted in a few minutes with writhing. […] Comparison of the number of writhes in the control and the treated animals served as a basis of evaluation of drug effect. Significance was calculated by Student's t test, and efficiency of the drug was expressed as per cent. Each experiment was performed on a group of 12-16 animals.

COc1ccc2c(c1)c(CC(=O)OCC(Cl)(Cl)Cl)c(C)n2C(=O)c1ccc(Cl)cc1 [Example 5, 1-(p-chlorobenzoyl)-2-methyl-5-methoxy-indol-3-yl-acetic-acid trichloroethyl ester]
Analgesic effect (oral 5 mg./kg., 2 h): 29.0% and 20.7% | number of writhes, treated (oral 5 mg./kg., 2 h): 28.0±9.5 and 41.1±12.2 | Analgesic effect (oral 5 mg./kg., 4 h): 18.6% and 20.1% | number of writhes, treated (oral 5 mg./kg., 4 h): 32.1±12.4 and 41.4±12.6 | Analgesic effect (oral 17 mg./kg., 2 h): 60.8% and 51.4% | Analgesic effect (oral 17 mg./kg., 4 h): 56.7% and 51.0% | number of writhes, treated (oral 17 mg./kg., 4 h): 13.7±10.7 and 20.6±12.3

Reference: patent US3989837A, “Pharmaceutical compositions” (Chinoin Gyogyszer-es Vegyeszeti Termekek Gyara RT, priority 1972, dated 1976)
